Structures are written as SMILES. ≈ marks a conversion by molar mass, not a printed value.

Broadly, the kinetic solubility is the concentration staying in solution when a stock, usually in DMSO, is diluted into the medium.

For this data set the following is noted: buffer; pH 7.4; 200.0 µM.
`COc1ccc(-n2c(N)cc(=O)[nH]c2=O)cc1` returned a solubility (kinetic) above 35 µg/mL.
The same measure for `O=S(=O)(c1ccccc1)N1CCN(c2cccc(Cl)c2)CC1`: 3.8 µg/mL (≈ 11.3 µM); for `Cc1ccccc1CC(=O)NC1CCCCCC1`: 11.1 µg/mL (≈ 45.2 µM).
The figure for `O=C(OCC(=O)c1ccccc1)C1=NN(c2ccccc2)C(=O)CC1` is above 50.5 µg/mL; for `CC(=O)c1cccc(NC(=O)c2nc(-c3ccccc3)oc2C)c1` it is 12.1 µg/mL (≈ 37.8 µM).
Regarding `COc1ccc(/C=C/C(=O)N(C)c2ccccc2C(=O)O)cc1`, the kinetic solubility was found to be 45.2 µg/mL (≈ 145 µM).
`NC(=O)c1ccc(NC(=O)COC(=O)c2ccc(Cl)nc2)cc1`: the solubility (kinetic) was above 50.1 µg/mL.
`Cc1ccc(C(OCC(O)CN2CCCCC2)c2ccccc2)cc1` (stereo unspecified) came in with a solubility (kinetic) of 40.2 µg/mL (≈ 118 µM).
Turning to `CC(C)c1ccccc1OCCNC(=O)c1cncc(Br)c1`, the kinetic solubility came to 36.4 µg/mL (≈ 100 µM).
In turn, `CCOc1ccc(C(=O)CCC(=O)Nc2ccccc2C)cc1` gave a kinetic solubility of 4.6 µg/mL (≈ 14.8 µM).
The same measure for `Cc1c(NC(=O)CSCc2ccccc2)cccc1C(=O)O`: above 47.3 µg/mL; for `Cc1[nH]ccc(=O)c1OCC(=O)O`: above 27.5 µg/mL; for `C=CCOc1ccccc1CN1CCCN(C)CC1`: 27.8 µg/mL (≈ 107 µM).
The same measure for `NC(=O)c1ccc(NC(=O)c2cccc3c2OCCCO3)cc1`: 14.5 µg/mL (≈ 46.4 µM); for `O=C(Nc1ccsc1C(=O)O)c1cccc(C(F)(F)F)c1`: above 47.3 µg/mL; for `O=Cc1cnc(N2CCN(Cc3ccccc3)CC2)s1`: above 43.1 µg/mL.
On to `CCOC(=O)c1csc(COc2ccc(OC)cc2)n1`, for which the kinetic solubility amounted to 11.3 µg/mL (≈ 38.5 µM).
For the molecule `CC(=O)Nc1ccc(SCC(=O)Nc2ccc(Cl)cn2)cc1`, the kinetic solubility turned out to be 9.6 µg/mL (≈ 28.6 µM).
The figure for `CN(CCOc1ccccc1)CCOc1ccccc1` is 32.8 µg/mL (≈ 121 µM).
For `O=C(OCC(=O)c1c[nH]c2ccccc12)c1cncc(Br)c1`, the solubility (kinetic) came to 7.5 µg/mL (≈ 20.9 µM).
As for `Cc1ccc2cc(NC(=O)c3ccccc3C)ccc2n1`, the solubility (kinetic) turned out to be 37.4 µg/mL (≈ 135 µM). Against the preceding molecule, the solubility kinetic is about 5-fold higher.
The figure for `CN(C(=O)CNc1ccccc1Cl)C1CCS(=O)(=O)C1` (stereo unspecified) is above 47.5 µg/mL; for `COc1ccc(C(=O)NCCc2cn3ccccc3n2)cc1` it is 42.9 µg/mL (≈ 145 µM); for `Cc1cnc(NS(=O)(=O)c2ccccc2)c(Br)c1` it is above 49.1 µg/mL.
The figure for `CCOC(=O)c1c(C=O)c2sc(C)cc2n1C` is 1.5 µg/mL (≈ 5.97 µM); for `O=C(NCCc1ccccc1)c1cc2ccccc2oc1=O` it is below 0.6 µg/mL.
The same measure for `O=C(c1cc(-c2ccccc2)nc2ccccc12)N1CCCC1`: 42 µg/mL (≈ 139 µM).
On to `O=C(c1cc([N+](=O)[O-])ccc1N1CCCC1)N1CCCCC1`, for which the kinetic solubility turned out to be 25.9 µg/mL (≈ 85.4 µM). This solubility kinetic lies about 1.6-fold lower than the previous one.
The figure for `O=C(O)c1ccccc1C(=O)Nc1ccccc1NC(=O)c1ccccc1C(=O)O` is above 60.7 µg/mL.
The figure for `O=C(O)CNc1ccc(S(=O)(=O)C(F)(F)F)cc1[N+](=O)[O-]` is 44.7 µg/mL (≈ 136 µM).
As to `O=C(COC(=O)CNC(=O)c1ccc(Cl)cc1)NC1CCCCCC1`, the solubility (kinetic) is 18 µg/mL (≈ 49.1 µM).
The same measure for `Cc1ccc(N2CC(C(=O)N3CCOCC3)CC2=O)cc1Cl` (stereo unspecified): above 48.4 µg/mL.
The same measure for `COc1cccc(C(=O)Nc2ccc(C(=O)NCC3CCCO3)cc2)c1` (stereo unspecified): 45.2 µg/mL (≈ 128 µM).
The same measure for `CCCNC(=O)Nc1cc(S(=O)(=O)CC)ccc1O`: 37.9 µg/mL (≈ 132 µM); for `CC(C)Cc1ccc(C(C)C(N)=NCCc2ccccc2)cc1.Cl` (stereo unspecified): 51.3 µg/mL.
`O=C(CNC(=O)c1ccc2ccccc2c1)NC1CCCCC1` showed a solubility (kinetic) of 13 µg/mL (≈ 41.9 µM).
Molecule `Cn1c(/C=C/c2cccc([N+](=O)[O-])c2)nc2ccccc2c1=O` returned a solubility (kinetic) below 0.2 µg/mL.
The same measure for `COC(=O)CCC(=O)NNC(=O)Cc1ccccc1`: above 39.6 µg/mL.
The same measure for `COc1ccc(Cl)cc1NC(=O)CN1C(=O)NC(Cc2c[nH]c3ccccc23)C1=O` (stereo unspecified): 6.7 µg/mL (≈ 15.7 µM).
The figure for `CC1CCc2[nH]c3ccc(C(=O)NCCCOC(C)C)cc3c2C1` (stereo unspecified) is above 49.3 µg/mL; for `Cc1cccc(C)c1NC(=O)COC(=O)[C@@H]1CCCN1C(=O)c1cccs1` it is above 58 µg/mL.
The molecule `COc1ccc(-c2cc(=O)[nH]c(N3CCN(Cc4ccccc4)CC3)n2)cc1` registered a kinetic solubility of 0.8 µg/mL (≈ 2.13 µM).
The figure for `CCOC(=O)C1=C(CC)Nc2ccccc2N=C1N` is 14.3 µg/mL (≈ 55.1 µM); for `Cc1cccc(OCCn2cnc(Cl)c2Cl)c1` it is 27.7 µg/mL (≈ 102 µM).
Consider `COc1ccc(C(=O)Nc2cc(S(=O)(=O)N3CCCC3)ccc2Cl)cc1`, for which the solubility (kinetic) is 9.2 µg/mL (≈ 23.3 µM).
In turn, `Cc1cccc(COc2ccc(/C=C3/C(=O)N(C)C(=S)N3C)cc2)c1` registered a kinetic solubility of 5.4 µg/mL (≈ 15.3 µM).
The figure for `Cc1ccc(S(=O)(=O)N2CCN(C(=O)c3cccs3)CC2)cc1C` is 44.4 µg/mL (≈ 122 µM); for `O=c1c2[nH]c3cccc(Cl)c3c2ncn1CC1CCCO1` (stereo unspecified) it is 7.4 µg/mL (≈ 24.4 µM); for `CCCn1c(SCC(=O)NC2CCCC2)nnc1-c1cccnc1` it is above 51.8 µg/mL.
As for `Cc1onc(-c2c(Cl)cccc2Cl)c1C(=O)Nc1nccs1`, the solubility (kinetic) is 4.7 µg/mL (≈ 13.3 µM).
The same measure for `CCCCN(C)C1CCN(C(=S)Nc2ccc(OC)cc2)CC1`: above 50.3 µg/mL.

The record behind these values is PubChem BioAssay AID1996.
